Test results from patent publication US11779600B2, “Methods of treating or preventing alzheimer's disease and associated conditions” (CEDARS-SINAI MEDICAL CENTER, priority 2016, dated 2023).

Tested on: infiltrating OPN+CD45high cells
Test: OPN+CD45high infiltrating cell count in ADtg mouse brain
Format: in vivo
Details: cell count per section, vs PBS controls (FIG. 13F)
Experimental: ADtg mice (10 months old) received subcutaneous injections of GA [also known as Cop-1 and Copaxone®; 100 μg in phosphate-buffered saline (PBS)] or PBS alone (control group) twice a week for 1 week and then once a week for 8 weeks. For evaluation of innate immune infiltration to the brain by flow cytometry, 10-month-old ADtg mice received subcutaneous injections of GA (100 mg in PBS) or PBS alone twice a week for 1 week and then once a week for 3 weeks. At the end of the study, all mice were anaesthetized and then perfused with ice-cold PBS with 0.5 mM EDTA, after which their organs were collected and analyzed or fixed in 2.5% paraformaldehyde (Sigma-Aldrich), and cryoprotected with 30% sucrose for further histological analysis.
CD115^+ monocytes from mice donors were isolated as previously reported (Koronyo et al., Brain: a journal of neurology 2015,138:2399-2422). In brief, bone marrow cells were harvested from the femora, tibiae, and humeri and enriched for mononuclear cells on a Ficoll-Paque® PLUS (17-1440-03, GE Healthcare) density gradient. […]
The number and area (μm^2) of OPN+ cells, Iba1^+CD45^hi cells, GFAP^+ cells, Thio-S^+ amyloid-βplaques and 4G8^+ amyloid-βplaques were determined by examining four to six coronal sections per mouse at 150-μm intervals over an area covering both the hippocampal and cortical (including entorhinal and cingulate cortex) regions. […]

## glatiramer acetate [GA]
  increase in number of infiltrating OPN+CD45high cells: 1.5 fold
